Experimental data: US20060276436A1, “Farnesyl dibenzodiazepinone formulation” (Ecopia BioSciences, Inc., priority 2005, published 2006)
Several values for one entry are separate records, joined by “and”; a condition that tells them apart may be missing. Equal values may be shown once. Read-outs that look alike come from different tables or passages of the source.

Assays:
[1] = Population pharmacokinetic analysis (NONMEM), monkey; assay type: in vivo; details: cynomolgus, plasma, iv, Monkey (CIV); for half-life: monkey; for Vd: read-out: Vss
Excerpt: Plasma concentrations of Compound 1 were obtained from mice, rats, and monkeys following intravenous injection or continuous infusion. Compound 1 pharmacokinetic parameters in mice, rats, and monkeys were estimated using population pharmacokinetic analysis, a function of the software program NONMEM™ (version 5). Typical population pharmacokinetic parameters for Compound 1 in humans were extrapolated from allometric equations that were derived from pharmacokinetic parameters estimated in the three animal species. […] A two-compartment model with a first-order elimination from the central compartment adequately described Compound 1 plasma concentration-time profiles following intravenous bolus injection (30 mg/kg) in mice and rats, 7-day continuous infusion in rats (50 to 170 mg/kg/day), and 14-day continuous infusion in monkeys (5 to 30 mg/kg/day).

[2] = system: human prostate tumor (PC3) xenografts; assay: Human PC3 prostate cancer mice model; assay type: in vivo, HRLN male nude mice; details: Intravenous treatment, 100 mg/kg 5/2/5/2/5
Procedure: The anticancer activity of Compound 1 was tested in a human PC3 prostate model in mice, using formulation D11; at 6, 9 and 10 mg/mL concentrations (see Table 7). HRLN male nude mice (8 weeks of age) were implanted with 1 mm^3 PC3 tumor fragments subcutaneously (sc) in the right flank. Animals were randomized (ten per group) when tumors reach an average size of 80-120 mg and treatment began according to the table below.
Tumor measurements were taken twice weekly using callipers and were converted to tumor mass (in milligrams) using the formula: with^2 (mm)×length (mm)×0.52. Body weights were also recorded twice weekly. Statistical analysis was done using the unpaired two-tailed Student's t test.

[3] = In vivo toxicity of Compound 1 in monkeys
[4] = Pharmacokinetics of Formulation D11 given CIV for 14 days in rats; assay type: in vivo; details: both sexes, Sprague-Dawley, rat, plasma; for concentration at 2 h: read-out: mean plasma concentration 2 hours after the end of infusion; for Vd / AUC / clearance: iv, 14-day CIV
Procedure: Sprague-Dawley rats received an intravenous continuous infusion over 14 days of Compound 1 at 25 mg/kg/day, 50 mg/kg/day, or 75 mg/kg/day at a rate of 2 mL/kg/h for 14 consecutive days (Formulation D11). Blood was collected from the jugular vein in tubes containing K2 EDTA from 3 rats/sex/group at the following time points: 2, 6, and 12 hours after the start of dosing on Day 1, on Day 2 at 6 hours (approximately 30 hours after the start of dosing), on Days 6 and 10 at 6 hours, and on Day 15, 1 hour prior the end of dosing, and then at 5 min, 15 min, 30 min, 1 h, and 2 h after the end of dosing.

[5] = In vivo toxicity of Compound 1 in rats; details: rat, single bolus intravenous administration, healthy rats
Excerpt: The toxicity was due to the vehicle and was attributed to smaller size of infusion vessels, and concurrent catheter tract infection.

[6] = system: human glioma (U-87MG) tumor xenograft; assay: Human U-87 MG glioblastoma mice model, antitumor efficacy; assay type: in vivo; details: SC 30 mg/kg q1d×5 over 2 weeks
Procedure: Tumor growth was followed every other day by measuring tumor length (L) and width (W) using a calliper. Measurements were converted to tumor volumes (TV; mm^3) using the standard formula, TV=(L×W^2)/2. Tumor volume at day n was expressed as relative tumor volume (RTV) according to the following formula RTV=TVn/TV0, where TVn is the tumor volume at day n and TV0 is the tumor volume at day 0. The percentage of tumor growth inhibition (% TGI) was determined by 1−(mean RTV of treated group/mean RTV of control group)×100. […] Statistical analysis was calculated by the two-tailed unpaired t test using the Prism software. […]
The human U-87 MG (ATCC® no. HTB-14™) glioblastoma antitumor efficacy study was performed at INSERM U318 (Grenoble, France). […] On each dosing day, Compound 1 stock solutions (24 and 40 mg/mL in bulk Formulation B11) were diluted with sterile 5% dextrose in water (D5W) to prepare a dosing solution of 6 mg/mL of Compound 1 in ready-to-use Formulation D11 (5% ethanol, 5% PEG400, 15% polysorbate 80, and 75% D5W).
For the human glioblastoma antitumor efficacy study, female athymic (nu/nu) nude mice (6-7 weeks of age) were inoculated SC with 5×10^6 U-87MG cells (day 0). […] Tumor growth inhibition (TGI) was calculated on day 34 post tumor cell inoculation, at which time some animals from the vehicle control group had to be sacrificed due to tumor burden.

CC(C)=CCC/C(C)=C/CC/C(C)=C/CN1C(=O)c2cccc(O)c2Nc2c(O)cc(O)cc21 [Compound 1, 10-farnesyl-4,6,8-trihydroxy-dibenzodiazepin-11-one]
half-life ([1]; population PK, read-out: t1/2, α (converted)): 0.308 h | half-life ([1]; population PK, read-out: t1/2, β (converted)): 8.05 h | clearance ([1]; WT 3.8 Kg): 28 mL/min | Vd ([1]; WT 3.8 Kg): 2.36 L | clearance ([1]; population PK): 7.35 mL/min/kg | Vd ([1]; population PK): 0.622 L/kg | antitumor activity (in words) [2]: did not result in activity | acute toxicity, tolerability ([3]; 24-hour CIV, doses of 35 mg/kg and 70 mg/kg, infusion rate 2 mL/kg/hour): well tolerated | MTD ([3]; monkey, in vivo, single bolus intravenous administration): ~35 mg/kg | concentration at 2 h ([4]; intravenous, 25 mg/kg/day): 28 ng/mL | concentration at 2 h ([4]; intravenous, 50 mg/kg/day): 53 ng/mL | concentration at 2 h ([4]; intravenous, 75 mg/kg/day): 75 ng/mL | concentration at 10 day ([4]; intravenous, CIV, 50 mg/kg/day): 1750 ng/mL and ~3.8 µM | Vd ([4]; 25 mg/kg/day, 25 mg/kg/day, read-out: Vss): 15.8 L/kg | Vd ([4]; 25 mg/kg/day, 25 mg/kg/day, read-out: Vz): 6.8 L/kg | Vd ([4]; 50 mg/kg/day, 50 mg/kg/day, read-out: Vss): 38.8 L/kg | Vd ([4]; 50 mg/kg/day, 50 mg/kg/day, read-out: Vz): 3.1 L/kg | Vd ([4]; 75 mg/kg/day, 75 mg/kg/day, read-out: Vss): 15.4 L/kg | Vd ([4]; 75 mg/kg/day, 75 mg/kg/day, read-out: Vz): 3.1 L/kg | AUC ([4]; 25 mg/kg/day): 116 µg·h/mL | clearance ([4]; 25 mg/kg/day): 50 mL/min/kg | AUC ([4]; 50 mg/kg/day): 396 µg·h/mL | clearance ([4]; 50 mg/kg/day): 30 mL/min/kg | AUC ([4]; 75 mg/kg/day): 597 µg·h/mL | clearance ([4]; 75 mg/kg/day): 30 mL/min/kg | MTD [5]: 85 mg/kg | tolerability of dose regimen [6]: well tolerated
